Measurements published in ChEMBL document CHEMBL1201862, “PubChem BioAssay data set” (2004).
Calls of active or inactive are those of the source.

Tests used:
[1] = biological target: T1, Corticotropin-releasing factor receptor 2/Corticotropin-releasing factor-binding protein (Homo sapiens, UniProt P24387+Q13324); assay: activators of CRF receptor 2 with binding protein – uHTS hits, confirmation (AID 602473); assay type: functional; details: read-out: EC50_Mean
T1 sequence (Q13324 whole entry): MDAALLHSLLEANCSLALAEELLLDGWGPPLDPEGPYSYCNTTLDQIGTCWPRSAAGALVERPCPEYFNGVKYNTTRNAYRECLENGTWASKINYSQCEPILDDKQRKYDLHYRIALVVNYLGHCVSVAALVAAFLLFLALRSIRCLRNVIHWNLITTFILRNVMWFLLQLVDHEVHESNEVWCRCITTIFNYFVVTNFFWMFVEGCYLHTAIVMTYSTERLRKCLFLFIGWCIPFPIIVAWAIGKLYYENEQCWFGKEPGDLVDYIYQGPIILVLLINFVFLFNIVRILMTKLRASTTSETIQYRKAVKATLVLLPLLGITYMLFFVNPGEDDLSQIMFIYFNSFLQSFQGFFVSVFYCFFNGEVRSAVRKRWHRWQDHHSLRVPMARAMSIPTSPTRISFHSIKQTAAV
T1 sequence (P24387 whole entry): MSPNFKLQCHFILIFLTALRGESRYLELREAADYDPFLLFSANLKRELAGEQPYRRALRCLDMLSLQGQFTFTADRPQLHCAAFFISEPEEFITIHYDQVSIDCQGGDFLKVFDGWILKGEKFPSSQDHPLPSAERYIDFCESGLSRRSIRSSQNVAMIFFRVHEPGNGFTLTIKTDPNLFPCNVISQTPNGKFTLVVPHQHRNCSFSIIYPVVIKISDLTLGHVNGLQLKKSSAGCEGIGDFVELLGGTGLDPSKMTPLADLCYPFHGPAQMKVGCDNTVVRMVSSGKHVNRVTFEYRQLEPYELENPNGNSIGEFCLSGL

[2] = biological target: T1, Corticotropin-releasing factor receptor 2/Corticotropin-releasing factor-binding protein; assay: Dose Response confirmation of uHTS hits for small molecule antagonists of the CRF-binding protein and CRF-R2 receptor complex.; assay type: functional; details: read-out: IC50_Mean
Cytochrome P450 3A4 = Cytochrome P450 3A4 (Homo sapiens, UniProt P08684);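 further: CYP3A4 tested as one member of a cytochrome P450 panel screen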
Paired box protein Pax-8 = Paired box protein Pax-8 (Homo sapiens, UniProt Q06710); assay: inhibitors of PAX8-driven TPO luciferase reporter, dose response, RMG-I cells, cherry-pick (AID 687027); assay type: functional, cell-based;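 further: luciferase reporter driven by Pax8 target thyroperoxidase promoter measured by SteadyGlo luminescence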
[3] = Luminescence Cell-Based Dose Retest to Confirm Inhibitors of Cancer Stem Cells. [Related pubchem assays (depositor defined):AID2717, AID2721]; assay type: functional; details: Homo sapiens
Cytochrome P450 2C9 = Cytochrome P450 2C9 (Homo sapiens, UniProt P11712)
[4] = biological target: T2, Rac GTPase-activating protein 1 (Homo sapiens, UniProt Q9H0H5); assay: MgcRacGAP GTPase-activating activity inhibitors, confirmation, biochemical, ADP Hunter fluorescence, primary and confirmatory (AID 624330); assay type: functional
T2 sequence (Q9H0H5 whole entry): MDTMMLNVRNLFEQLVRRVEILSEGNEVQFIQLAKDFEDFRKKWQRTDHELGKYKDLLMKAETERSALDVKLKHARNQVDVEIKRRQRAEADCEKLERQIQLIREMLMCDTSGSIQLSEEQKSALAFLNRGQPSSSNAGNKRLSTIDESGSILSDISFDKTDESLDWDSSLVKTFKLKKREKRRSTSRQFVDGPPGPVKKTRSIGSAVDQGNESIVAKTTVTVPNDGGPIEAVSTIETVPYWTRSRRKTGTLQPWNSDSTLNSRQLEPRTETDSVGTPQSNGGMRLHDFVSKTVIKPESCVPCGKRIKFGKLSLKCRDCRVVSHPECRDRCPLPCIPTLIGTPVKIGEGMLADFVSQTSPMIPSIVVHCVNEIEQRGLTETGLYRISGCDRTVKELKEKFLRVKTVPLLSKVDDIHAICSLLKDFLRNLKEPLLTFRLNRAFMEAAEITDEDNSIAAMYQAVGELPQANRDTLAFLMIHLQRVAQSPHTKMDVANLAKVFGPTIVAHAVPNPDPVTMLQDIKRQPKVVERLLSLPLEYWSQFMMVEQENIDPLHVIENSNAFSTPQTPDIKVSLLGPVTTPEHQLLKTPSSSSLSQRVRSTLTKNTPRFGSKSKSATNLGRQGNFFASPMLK

Cytochrome P450 1A2 = biological target: T3, Cytochrome P450 1A2 (Homo sapiens, UniProt P05177);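 further: PubChem cytochrome P450 panel assay, CYP1A2 panel member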
T3 sequence (P05177 whole entry): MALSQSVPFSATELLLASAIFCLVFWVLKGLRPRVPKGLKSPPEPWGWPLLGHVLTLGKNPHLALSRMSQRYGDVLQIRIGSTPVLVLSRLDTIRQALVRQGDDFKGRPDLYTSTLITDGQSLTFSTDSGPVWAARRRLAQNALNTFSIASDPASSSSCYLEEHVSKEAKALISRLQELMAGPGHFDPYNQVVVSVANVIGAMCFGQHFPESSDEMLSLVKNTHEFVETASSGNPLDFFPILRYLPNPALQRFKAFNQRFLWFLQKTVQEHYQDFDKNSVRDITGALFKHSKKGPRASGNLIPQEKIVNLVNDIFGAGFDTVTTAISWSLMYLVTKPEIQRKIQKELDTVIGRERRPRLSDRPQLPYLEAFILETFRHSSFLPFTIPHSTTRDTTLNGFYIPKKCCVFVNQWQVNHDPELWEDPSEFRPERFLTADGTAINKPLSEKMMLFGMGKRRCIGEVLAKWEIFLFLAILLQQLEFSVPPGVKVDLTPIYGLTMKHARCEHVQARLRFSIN

[5] = biological target: T4, RNA-binding protein pos-1 (Caenorhabditis elegans, UniProt G5EF15); assay: inhibitors of POS-1/mex-3 RNA binding, dose response, biochemical, fluorescence polarization (AID 1964);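 further: purified POS-1 fused to maltose binding protein made in E. coli; potency of compounds blocking POS-1 binding to fluorescent RNA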
T4 sequence (G5EF15 whole entry): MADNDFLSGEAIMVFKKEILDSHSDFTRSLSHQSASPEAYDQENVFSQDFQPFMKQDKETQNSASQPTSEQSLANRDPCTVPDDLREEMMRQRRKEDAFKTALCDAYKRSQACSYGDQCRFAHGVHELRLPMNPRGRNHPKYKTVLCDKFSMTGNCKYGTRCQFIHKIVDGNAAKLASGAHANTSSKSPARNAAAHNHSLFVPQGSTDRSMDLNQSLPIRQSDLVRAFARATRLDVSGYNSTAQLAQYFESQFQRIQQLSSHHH

Cytochrome P450 2D6 = Cytochrome P450 2D6 (Homo sapiens, UniProt P10635);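 further: CYP2D6 member of a cytochrome P450 panel assay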
Streptokinase A = biological target: T5, Streptokinase A (Streptococcus pyogenes serotype M1, UniProt P10520); assay: S. pyogenes streptokinase expression inhibitors, potency, dose response, plasminogen activation absorbance, OD405 (AID 1914); assay type: functional, Streptococcus pyogenes M1 GAS;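 further: secreted streptokinase activity via plasminogen activation per viability signal from cell pellet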
T5 sequence (P10520 whole entry): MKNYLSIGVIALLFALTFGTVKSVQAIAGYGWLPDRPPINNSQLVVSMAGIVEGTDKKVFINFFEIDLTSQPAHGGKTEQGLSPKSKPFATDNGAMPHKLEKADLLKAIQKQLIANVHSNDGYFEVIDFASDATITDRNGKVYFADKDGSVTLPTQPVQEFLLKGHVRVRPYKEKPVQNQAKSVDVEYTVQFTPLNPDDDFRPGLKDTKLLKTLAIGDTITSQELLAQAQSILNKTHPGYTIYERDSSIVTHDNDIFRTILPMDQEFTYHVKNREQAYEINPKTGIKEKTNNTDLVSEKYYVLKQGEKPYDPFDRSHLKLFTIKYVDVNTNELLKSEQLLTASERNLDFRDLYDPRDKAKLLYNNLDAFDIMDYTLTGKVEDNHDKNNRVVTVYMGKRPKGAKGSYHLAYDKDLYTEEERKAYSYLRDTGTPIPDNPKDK

[6] = test system: Streptococcus sp. 'group A'; assay: growth inhibition of control SK(-) GAS strain, dose response, counter-screen for streptokinase expression inhibitor project, luminescence, kanamycin, BacTiterGlo, confirmation (AID 1900); assay type: functional, organism-based
Streptococcus = assay: Group A Streptococcus viability loss, dose response, counter-screen for streptokinase expression inhibitor project, luminescence, BacTiterGlo (AID 1915); assay type: functional, organism-based;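 further: potency for reduction of bacterial viability or growth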

Sequence of Cytochrome P450 2C9 (P11712 whole entry): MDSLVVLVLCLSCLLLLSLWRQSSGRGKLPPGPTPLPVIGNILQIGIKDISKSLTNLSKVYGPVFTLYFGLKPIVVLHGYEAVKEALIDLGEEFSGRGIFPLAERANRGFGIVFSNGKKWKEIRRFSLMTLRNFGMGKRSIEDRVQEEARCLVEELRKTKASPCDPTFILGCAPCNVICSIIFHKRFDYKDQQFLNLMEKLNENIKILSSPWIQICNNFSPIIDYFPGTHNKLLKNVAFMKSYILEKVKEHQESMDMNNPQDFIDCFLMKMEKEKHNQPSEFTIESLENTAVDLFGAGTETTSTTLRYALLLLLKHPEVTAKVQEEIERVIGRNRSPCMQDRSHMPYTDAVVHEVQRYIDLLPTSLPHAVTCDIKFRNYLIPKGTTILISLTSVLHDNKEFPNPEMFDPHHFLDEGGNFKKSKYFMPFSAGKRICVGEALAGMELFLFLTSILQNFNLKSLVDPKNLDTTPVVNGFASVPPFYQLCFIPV
Sequence of Cytochrome P450 3A4 (P08684 whole entry): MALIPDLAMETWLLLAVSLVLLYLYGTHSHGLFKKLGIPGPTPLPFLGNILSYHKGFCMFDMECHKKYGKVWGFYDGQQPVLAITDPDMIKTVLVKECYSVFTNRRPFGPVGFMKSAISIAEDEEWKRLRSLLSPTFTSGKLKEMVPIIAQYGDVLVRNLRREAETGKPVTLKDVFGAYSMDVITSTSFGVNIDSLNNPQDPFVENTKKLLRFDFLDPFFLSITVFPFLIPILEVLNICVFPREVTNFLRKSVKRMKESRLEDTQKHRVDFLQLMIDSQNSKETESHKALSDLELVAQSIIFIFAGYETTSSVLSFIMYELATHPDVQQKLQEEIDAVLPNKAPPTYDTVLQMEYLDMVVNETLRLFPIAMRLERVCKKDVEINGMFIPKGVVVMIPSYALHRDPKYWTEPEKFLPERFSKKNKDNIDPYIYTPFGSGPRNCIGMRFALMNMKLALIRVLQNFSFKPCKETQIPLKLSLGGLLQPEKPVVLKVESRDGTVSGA
Sequence of Paired box protein Pax-8 (Q06710 whole entry): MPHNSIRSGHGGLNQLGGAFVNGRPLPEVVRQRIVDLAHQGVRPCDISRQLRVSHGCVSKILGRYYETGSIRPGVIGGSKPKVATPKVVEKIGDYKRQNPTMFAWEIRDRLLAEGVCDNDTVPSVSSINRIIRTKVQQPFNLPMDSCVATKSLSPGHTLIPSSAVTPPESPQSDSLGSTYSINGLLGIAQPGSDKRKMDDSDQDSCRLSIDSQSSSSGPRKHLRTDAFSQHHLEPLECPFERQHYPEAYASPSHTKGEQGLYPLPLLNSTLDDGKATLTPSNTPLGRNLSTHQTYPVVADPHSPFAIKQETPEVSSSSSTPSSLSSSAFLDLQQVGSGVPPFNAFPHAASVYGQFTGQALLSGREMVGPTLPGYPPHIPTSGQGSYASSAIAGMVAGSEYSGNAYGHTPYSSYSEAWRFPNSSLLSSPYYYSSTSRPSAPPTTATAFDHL
Sequence of Cytochrome P450 2D6 (P10635 whole entry): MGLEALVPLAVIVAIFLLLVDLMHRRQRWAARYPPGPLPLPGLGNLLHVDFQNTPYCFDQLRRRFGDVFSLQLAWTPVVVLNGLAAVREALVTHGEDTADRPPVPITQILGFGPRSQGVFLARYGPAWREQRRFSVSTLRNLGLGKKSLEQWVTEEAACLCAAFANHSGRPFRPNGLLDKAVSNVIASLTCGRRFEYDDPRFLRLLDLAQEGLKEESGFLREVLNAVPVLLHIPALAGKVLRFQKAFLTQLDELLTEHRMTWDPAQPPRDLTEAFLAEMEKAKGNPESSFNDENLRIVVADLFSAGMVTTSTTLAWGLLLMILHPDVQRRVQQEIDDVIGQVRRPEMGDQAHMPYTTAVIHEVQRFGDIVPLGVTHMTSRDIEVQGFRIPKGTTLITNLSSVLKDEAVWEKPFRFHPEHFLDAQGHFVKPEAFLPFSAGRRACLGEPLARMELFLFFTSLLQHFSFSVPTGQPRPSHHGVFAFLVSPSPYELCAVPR

NC(=O)CSc1nnnn1-c1ccc2c(c1)OCCO2
EC50 [1]: > 53 µM (inactive) | IC50 [2]: > 47.1 µM (inactive)

CCN(CC)Cc1nc(O)c2c(n1)-c1ccccc1CC21CCCC1
AC50 (Cytochrome P450 3A4): 14.1 µM (inconclusive)

COc1cccc(S(=O)(=O)N2CC[C@H]3[C@@H](CO)N(C)c4ccc(C#Cc5ccc(F)cc5)cc4[C@H]32)c1
AC50 (Paired box protein Pax-8): 6.92 µM (active)

Cc1cccc(NC(=O)c2nc[nH]c2C(=O)N[C@@H](C)c2ccccc2)c1
AC50 [3]: 7.02 µM (active)

COC(=O)[C@@H]1CC[C@H](C)[C@@H](c2ccc(C)cc2)N1C(=O)c1ccc(/C=N\O[C@@H](C)c2cn([C@H]3COC[C@H]3O)nn2)cc1
AC50 (Cytochrome P450 2C9): 3.16 µM (inconclusive) | AC50 (Cytochrome P450 3A4): 3.16 µM (inconclusive)

Nc1sc(-c2ccccc2)c(Cc2ccccc2)c1C(=O)O
IC50 [4]: 67.6 µM (active)

COc1ccc2[nH]c3c(=O)n(Cc4ccc(C(=O)N5CCC(C(N)=O)CC5)cc4)c(=S)[nH]c3c2c1
IC50 [4]: 61.3 µM (active)

CCCn1c(=O)c2ccccc2n2c(SCCNCCO)nnc12
IC50 [4]: 52.2 µM (active)

O=C(O)c1cccc(NC(=NS(=O)(=O)c2ccccc2)c2ccccc2)c1
EC50 [1]: > 53 µM (inactive) | IC50 [2]: > 47.1 µM (inactive)

CC(C(=O)NC1CCCCC1)N1CCN(C)CC1 (centres undefined)
IC50 [4]: 93.7 µM (active)

CN(C)S(=O)(=O)c1ccc(C(=O)OCC(=O)Nc2ccc(OC(F)F)cc2)cc1
EC50 [1]: > 53 µM (inactive) | IC50 [2]: > 47.1 µM (inactive)

CC(=O)N1c2ccc(S(=O)(=O)N(C)CC(=O)NC3CCCC3)cc2CC1C (centres undefined)
EC50 [1]: > 53 µM (inactive) | IC50 [2]: > 47.1 µM (inactive)

O=C(Oc1ccccc1N1C(=O)C2CCCCC2C1=O)c1ccccc1 (centres undefined)
AC50 (Cytochrome P450 2C9): 11.2 µM (inconclusive) | AC50 (Cytochrome P450 1A2): 15.8 µM (inconclusive)

CCOC(=O)C1=C(C)N=c2s/c(=C/c3ccc(OCC(=O)O)cc3)c(=O)n2C1c1ccc(OC)cc1OC (centres undefined)
EC50 [5]: 85.1 µM (active)

Oc1ccc(C[C@H]2CNC(=S)N2CC2CCCN2C[C@H](Cc2ccc(O)cc2)N2C[C@H](Cc3ccc(O)cc3)N(CC3CCCCC3)C2=S)cc1 (some centres undefined)
AC50 (Paired box protein Pax-8): 6.44 µM (active)

CN(c1ccccc1)S(=O)(=O)c1ccc2c(c1)oc(=O)n2C
EC50 [1]: > 53 µM (inactive) | IC50 [2]: > 47.1 µM (inactive)

COc1cc(/C=C/C(=O)OCC(=O)NNC(=O)c2cc(Cl)ccc2OC)ccc1O
IC50 [4]: 60.5 µM (active)

CN(C)c1ccc(/C=N\Nc2ccccn2)cc1
IC50 [4]: 31.6 µM (active)

COc1ccc(-c2nc3cnc(OC)nc3n(CCc3ccccc3)c2=O)cc1
AC50 (Cytochrome P450 2C9): 6.31 µM (inconclusive) | AC50 (Cytochrome P450 1A2): 6.31 µM (inconclusive) | AC50 (Cytochrome P450 3A4): 10 µM (inconclusive)

O=C(CN1CCN(c2ncccn2)CC1)NCCC1=CCCCC1
AC50 (Cytochrome P450 3A4): 17.8 µM (inconclusive)

Cc1nn(-c2ccc(F)cc2)c(Cl)c1/C=C1\C(=O)Nc2ccccc21
AC50 [3]: 1.95 µM (active)

C[C@H](CO)N1C[C@H](C)[C@@H](CN(C)C(=O)c2ccc3ccn(C)c3c2)OCc2cn(nn2)CCCC1=O
EC50 [1]: > 53 µM (inactive) | IC50 [2]: > 47.1 µM (inactive)

CO[C@@H]1/C=C\CC(=O)N[C@@H](C)C(=O)OC[C@@H](OC)[C@H](C)CCCC(=O)OC[C@H]1C
AC50 (Cytochrome P450 3A4): 3.16 µM (inconclusive)

C/C(=C\C1CCCCC1)C(NC(=O)c1ccc(C(F)(F)F)cc1)c1ccc(-c2ccccc2)cc1 (centres undefined)
AC50 (Cytochrome P450 3A4): 12.6 µM (inconclusive)

C/C(=N\NC(=S)NC(C)C)c1ccc(C(C)(C)C)cc1
AC50 [3]: 11 µM (active)

Cc1ccc(-c2cnc(NC(=O)CCC(=O)N3CCCCC3)n2C)cc1
AC50 (Cytochrome P450 1A2): 25.1 µM (inconclusive) | AC50 (Cytochrome P450 3A4): 39.8 µM (inconclusive) | AC50 (Cytochrome P450 2D6): 14.1 µM (inconclusive)

c1ccc(C(c2nnnn2Cc2cccs2)N2CCN(C3CCCC3)CC2)cc1 (centres undefined)
EC50 [1]: > 53 µM (inactive) | IC50 [2]: > 47.1 µM (inactive)

Oc1ccc(/C=N/Nc2nc(N3CCCC3)nc(N3CCCC3)n2)cc1O
IC50 [4]: 57.3 µM (active)

CCCCn1c(SCC(N)=O)nc2sc3c(c2c1=O)CCC3
AC50 [3]: 126 µM (active)

Oc1ccccc1CNc1ccc2c(c1)OCCO2
IC50 [4]: 94.9 µM (active)

COc1ccc(-n2cnnc2)cc1
AC50 (Cytochrome P450 2C9): 0.0282 µM (inconclusive) | AC50 (Cytochrome P450 1A2): 14.1 µM (inconclusive)

O=C(CSCc1ccccc1Br)NNC(=S)NCc1ccco1
EC50 [1]: > 53 µM (inactive) | IC50 [2]: > 47.1 µM (inactive)

COc1ccc(-c2csc(-n3ncc(-c4cccs4)c3N)n2)cc1
AC50 (Cytochrome P450 2C9): 0.0501 µM (inconclusive) | AC50 (Cytochrome P450 1A2): 0.355 µM (inconclusive) | AC50 (Cytochrome P450 3A4): 8.91 µM (inconclusive)

CC(Cc1ccccc1)N/C=C1\CC(=O)NC1=O (centres undefined)
AC50 (Cytochrome P450 3A4): 3.98 µM (inconclusive)

CC(C)=CCc1c(O)cc2c(c1O)C(=O)CC(c1ccc(O)cc1)O2 (centres undefined)
EC50 (Streptokinase A): > 150 µM (not active) | EC50 [6]: 3.55 µM (active) | EC50 (Streptococcus): 4 µM (active) | AC50 [3]: 3.72 µM (active)

Brc1ccc([C@H]2CN3CCSC3=N2)cc1
AC50 (Cytochrome P450 1A2): 15.8 µM (inconclusive) | AC50 (Cytochrome P450 3A4): 25.1 µM (inconclusive)

CCC/C=C(\CCC)C(NC(=O)c1cccs1)c1ccc(C(F)(F)F)cc1 (centres undefined)
AC50 (Cytochrome P450 2C9): 0.501 µM (inconclusive) | AC50 (Cytochrome P450 1A2): 3.16 µM (inconclusive)
